Results: paper PMC5701947, “β1-Adrenergic Receptor Contains Multiple IA^k and IE^k Binding Epitopes That Induce T Cell Responses with Varying Degrees of Autoimmune Myocarditis in A/J Mice” (Frontiers in Immunology, 2017)

Test system: T cells (lymph node cells/splenocytes from immunized animals)
Assay: T cell proliferation assay ([3H]-thymidine)
Format: cell-based, A/J mice
Conditions: fold vs medium control
Method: At termination, lymph nodes (maxillary, mandibular, axillary, inguinal, and popliteal) and spleens were harvested from immunized animals to prepare single cell suspensions. Similarly, splenocytes were prepared from naive animals. After lysing the erythrocytes and washing, cell pellets were suspended in RPMI medium containing 10% fetal bovine serum, 1 mM sodium pyruvate, 4 mM L-glutamine, 1 × each of non-essential amino acids and vitamin mixture, and 100 U/ml penicillin–streptomycin (Lonza, Walkersville, MD, USA; hereafter called growth medium). In some experiments, CD4 T cells and CD8 T cells were enriched to a purity of ~95% by negative selection based on magnetic separation using IMAG (BD Biosciences, San Jose, CA, USA) ([31]). To stimulate CD4 and CD8 T cells, syngeneic naive irradiated splenocytes loaded with peptides were used as antigen-presenting cells at a ratio of 1:1. Cells were stimulated at a density of ~5 × 10^6 cells/ml in triplicates with or without the immunizing peptides (0–100 µg/ml) in growth medium. RNase 43–56 or HEL 46–61 were used as irrelevant controls. After 2 days, cells were pulsed with tritiated ^3[H]-thymidine (1 μCi/well; MP Biomedicals, Santa Ana, CA, USA), and 16 h later, proliferative responses were measured as counts per minute (cpm) using a Wallac liquid scintillation counter (Perkin Elmer, Waltham, MA, USA) ([26], [28], [30]).

[1] = 10 μg/ml, animals immunized with pool I
[2] = 100 μg/ml, animals immunized with pool I
[3] = 10 μg/ml, animals immunized with pool II
[4] = 100 μg/ml, animals immunized with pool II
[5] = 10 μg/ml, animals immunized with pool IX
[6] = 100 μg/ml, animals immunized with pool IX
[7] = 10 μg/ml, animals immunized with pool VII
[8] = 100 μg/ml, animals immunized with pool VII
[9] = 10 μg/ml, animals immunized with pool VI
[10] = 100 μg/ml, animals immunized with pool VI
[11] = 10 μg/ml, animals immunized with pool III
[12] = 100 μg/ml, animals immunized with pool III
[13] = 10 μg/ml, animals immunized with pool VIII
[14] = 100 μg/ml, animals immunized with pool VIII
[15] = 10 μg/ml, animals immunized with pool V
[16] = 100 μg/ml, animals immunized with pool V

## β1AR 1-20: 20-mer of mouse β1AR peptide library (MGAGALALGASEPCNLSSAA; UniProt P34971 1-20, looked up, fragment)
[1]
  T cell responses: 1.52 fold
[2]
  T cell responses: 1.90 fold

## β1AR 71-90: 20-mer of mouse β1AR peptide library (LIVVGNVLVIVAIAKTPRLQ; UniProt P34971 71-90, looked up, fragment)
[3]
  T cell responses: 2.71 fold
[4]
  T cell responses: 3.78 fold

## β1AR 421-440: 20-mer of mouse β1AR peptide library (DDDAGTTPPARLLEPWTGCN; UniProt P34971 421-440, looked up, fragment)
[5]
  T cell responses: 1.12 fold
[6]
  T cell responses: 1.21 fold

## β1AR 31-50: 20-mer of mouse β1AR peptide library (RLLVLASPPASLLPPASEGS; UniProt P34971 31-50, looked up, fragment)
[1]
  T cell responses: 0.97 fold
[2]
  T cell responses: 1.30 fold

## BAR 101-120: 20-mer of mouse β1AR peptide library (ASADLVMGLLVVPFGATIVV; UniProt P34971 101-120, looked up, fragment)
[3]
  T cell responses: 1.01 fold
[4]
  T cell responses: 1.02 fold

## β1AR 321-340: 20-mer of mouse β1AR peptide library (VFTLCWLPFFLANVVKAFHR; UniProt P34971 321-340, looked up, fragment)
[7]
  T cell responses: 3.23 fold
[8]
  T cell responses: 2.21 fold

## β1AR 311-330: 20-mer of mouse β1AR peptide library (ALKTLGIIMGVFTLCWLPFF; UniProt P34971 311-330, looked up, fragment)
[9]
  T cell responses: 1.30 fold
[10]
  T cell responses: 1.21 fold

## β1AR 121-140: 20-mer of mouse β1AR peptide library (WGRWEYGSFFCELWTSVDVL; UniProt P34971 121-140, looked up, fragment)
[11]
  T cell responses: 1.08 fold
[12]
  T cell responses: 1.26 fold

## β1AR 151-170: 20-mer of mouse β1AR peptide library (VIALDRYLAITSPFRYQSLL; UniProt P34971 151-170, looked up, fragment)
[11]
  T cell responses: 2.24 fold
[12]
  T cell responses: 2.43 fold

## β1AR 351-370: 20-mer of mouse β1AR peptide library (FNWLGYANSAFNPIIYCRSP; UniProt P34971 351-370, looked up, fragment)
[7]
  T cell responses: 1.86 fold
[8]
  T cell responses: 1.82 fold

## β1AR 411-430: 20-mer of mouse β1AR peptide library (PSPGAPSDDDDDDAGTTPPA; UniProt P34971 411-430, looked up, fragment)
[13]
  T cell responses: 0.93 fold
[14]
  T cell responses: 0.94 fold

## β1AR 251-270: 20-mer of mouse β1AR peptide library (AQKQVKKIDSCERRFLGGPA; UniProt P34971 251-270, looked up, fragment)
[15]
  T cell responses: 1.12 fold
[16]
  T cell responses: 1.81 fold

## β1AR 261-280: 20-mer of mouse β1AR peptide library (CERRFLGGPARPPSPEPSPS; UniProt P34971 261-280, looked up, fragment)
[15]
  T cell responses: 0.86 fold
[16]
  T cell responses: 1.32 fold

## β1AR 11-30: 20-mer of mouse β1AR peptide library (SEPCNLSSAAPLPDGAATAA; UniProt P34971 11-30, looked up, fragment)
[1]
  T cell responses: 1.84 fold
[2]
  T cell responses: 2.06 fold

## β1AR 231-250: 20-mer of mouse β1AR peptide library (VSFYVPLCIMAFVYLRVFRE; UniProt P34971 231-250, looked up, fragment)
[15]
  T cell responses: 1.42 fold
[16]
  T cell responses: 1.85 fold

## β1AR 241-260: 20-mer of mouse β1AR peptide library (AFVYLRVFREAQKQVKKIDS; UniProt P34971 241-260, looked up, fragment)
[15]
  T cell responses: 1.52 fold
[16]
  T cell responses: 2.02 fold

## β1AR 371-390: 20-mer of mouse β1AR peptide library (DFRKAFQRLLCCARRAACRR; UniProt P34971 371-390, looked up, fragment)
[13]
  T cell responses: 1.14 fold
[14]
  T cell responses: 0.60 fold

## β1AR 361-380: 20-mer of mouse β1AR peptide library (FNPIIYCRSPDFRKAFQRLL; UniProt P34971 361-380, looked up, fragment)
[7]
  T cell responses: 2.06 fold
[8]
  T cell responses: 1.82 fold

## β1AR 281-300: 20-mer of mouse β1AR peptide library (PGPPRPADSLANGRSSKRRP; UniProt P34971 281-300, looked up, fragment)
[9]
  T cell responses: 0.92 fold
[10]
  T cell responses: 0.93 fold

## β1AR 401-420: 20-mer of mouse β1AR peptide library (SGCLARAGPPPSPGAPSDDD; UniProt P34971 401-420, looked up, fragment)
[13]
  T cell responses: 0.90 fold
[14]
  T cell responses: 0.88 fold

## β1AR 431-450: 20-mer of mouse β1AR peptide library (RLLEPWTGCNGGTTTVDSDS; UniProt P34971 431-450, looked up, fragment)
[5]
  T cell responses: 1.14 fold
[6]
  T cell responses: 1.18 fold

## β1AR 451-466: 16-mer of mouse β1AR peptide library (SLDEPGRQGFSSESKV; UniProt P34971 451-466, looked up, fragment)
[5]
  T cell responses: 0.95 fold
[6]
  T cell responses: 1.16 fold

## β1AR 291-310: 20-mer of mouse β1AR peptide library (ANGRSSKRRPSRLVALREQK; UniProt P34971 291-310, looked up, fragment)
[9]
  T cell responses: 0.87 fold
[10]
  T cell responses: 1.66 fold

## β1AR 271-290: 20-mer of mouse β1AR peptide library (RPPSPEPSPSPGPPRPADSL; UniProt P34971 271-290, looked up, fragment)
[9]
  T cell responses: 1.05 fold
[10]
  T cell responses: 1.13 fold

## β1AR 441-460: 20-mer of mouse β1AR peptide library (GGTTTVDSDSSLDEPGRQGF; UniProt P34971 441-460, looked up, fragment)
[5]
  T cell responses: 0.79 fold
[6]
  T cell responses: 1.01 fold

## β1AR 51-70: 20-mer of mouse β1AR peptide library (APLSQQWTAGMGLLLALIVL; UniProt P34971 51-70, looked up, fragment)
[3]
  T cell responses: 1.10 fold
[4]
  T cell responses: 1.38 fold

## β1AR 91-110: 20-mer of mouse β1AR peptide library (TLTNLFIMSLASADLVMGLL; UniProt P34971 91-110, looked up, fragment)
[3]
  T cell responses: 1.67 fold
[4]
  T cell responses: 1.93 fold

## β1AR 111-130: 20-mer of mouse β1AR peptide library (VVPFGATIVVWGRWEYGSFF; UniProt P34971 111-130, looked up, fragment)
[11]
  T cell responses: 1.97 fold
[12]
  T cell responses: 2.49 fold

## β1AR 131-150: 20-mer of mouse β1AR peptide library (CELWTSVDVLCVTASIETLC; UniProt P34971 131-150, looked up, fragment)
[11]
  T cell responses: 1.28 fold
[12]
  T cell responses: 1.72 fold

## β1AR 21-40: 20-mer of mouse β1AR peptide library (PLPDGAATAARLLVLASPPA; UniProt P34971 21-40, looked up, fragment)
[1]
  T cell responses: 1.33 fold
[2]
  T cell responses: 1.43 fold

## β1AR 221-240: 20-mer of mouse β1AR peptide library (NRAYAIASSVVSFYVPLCIM; UniProt P34971 221-240, looked up, fragment)
[15]
  T cell responses: 1.18 fold
[16]
  T cell responses: 1.01 fold

## β1AR 301-320: 20-mer of mouse β1AR peptide library (SRLVALREQKALKTLGIIMG; UniProt P34971 301-320, looked up, fragment)
[9]
  T cell responses: 2.03 fold
[10]
  T cell responses: 1.93 fold

## β1AR 41-60: 20-mer of mouse β1AR peptide library (SLLPPASEGSAPLSQQWTAG; UniProt P34971 41-60, looked up, fragment)
[1]
  T cell responses: 0.84 fold
[2]
  T cell responses: 1.10 fold

## β1AR 331-350: 20-mer of mouse β1AR peptide library (LANVVKAFHRDLVPDRLFVF; UniProt P34971 331-350, looked up, fragment)
[7]
  T cell responses: 1.05 fold
[8]
  T cell responses: 1.49 fold
